Holding throughout (assay type): in vivo, rat
For data set [1], the system named is Male Sprague-Dawley rats. In words: formalin-induced pain behaviors (flinches and shakes). The note with it: for reduction of the number of flinches and shakes evoked by formalin: 50 μg intrathecal. On the procedure:
All of the experiments were carried out with the approval of the Animal Care Committee at the Johns Hopkins University. Thirty-eight male Sprague-Dawley rats (250-300 g, Hilltop Laboratory Animals, Scottsdale, Pa., USA) were implanted with an intrathecal PE-10 catheter at the rostral level of the spinal cord lumbar enlargement according to the method described by Yaksh and Rudy. After 4 to 7 days of recovery, they were intrathecally injected with one of the following agents every 24 hours for 4 consecutive days: saline (10 μl, n=6), PSD-95 antisense oligodeoxynucleotide (ODN) (12.5 μg/10 μl, n=6; 25 μg/10 μl, n=6; 50 μg/10 μl, n=6), sense ODN (50 μg/10 μl, n=5) or missense ODN (50 μg/10 μl, n=9). On the fifth day, formalin (4%, 100 μl) was injected into one of the hindpaws. The number of flinches and shakes of the injected paw was assessed for 1 hour. The observational session was divided into phasic (0-10 min) and tonic (10-60 min) periods. Rats were sacrificed two hours after formalin injection and their lumbar spinal cords were harvested for c-fos immunohistochemistry.

For data set [2], the system named is Male Sprague-Dawley rats. The experiment in a line: radiant heat tail-flick test, baseline and NMDA-induced thermal hyperalgesia. The note with it: for percentage change of TF latency (baseline tail-flick latency): without NMDA, compared to the control group. The source says: To examine whether PSD-95/SAP90 was required for thermal hyperalgesia triggered through NMDA receptor activation, we made an antisense oligonucletide (OND) corresponding to the PDZ domain nucleotides 241 to 258 (5′-[…]-3′; SEQ ID NO: 1) of rat PSD-95/SAP90 mRNA, as well as the sense OND and missense OND (5′-[…]-3′; SEQ ID NO: 2). All of the ONDs were compared to the Gene Bank database (GenBank accession number M96853) and found not to be complementary to any registered nucleotide sequences. The effects of antisense, sense and missense ONDs on baseline and NMDA-induced tail-flick latencies were assessed. […] To identify that NMDA-induced thermal hyperalgesia was produced specifically through NMDA receptor activation but not non-NMDA receptor activation, we observed the effects of a selective NMDA receptor antagonist, MK-801, and a selective non-NMDA receptor antagonist, DNQX, on NMDA-induced facilitation of the tail-flick reflex. […] In addition, motor weakness or dysfunction was not observed in locomotor tests (including placing reflex, grasping reflex and righting reflex) in any of the treated animals including the antisense groups (data not shown).
Animal preparation and behavioral testing. All experiments were carried out with the approval of the Animal Care Committee at the Johns Hopkins University and were consistent with the ethical guidelines of the National Institutes of Health and the International Association for the Study of Pain. Male Sprague-Dawley rats (250-300 g) were implanted with an intrathecal PE-10 catheter into the subarachnoid space at the rostral level of the spinal cord lumbar enlargement through an incision at the atlanto-occipital membrane according to the method as described.^25,27 One week or more later, the rats were injected intrathecally with saline or ONDs every 24 h for 4 days. On the fifth day, saline, NMDA, MK-801+NMDA or DNQX+NMDA was given intrathecally. Nociception was evaluated by the radiant heat tail-flick test. The doses and time point of maximal effect of NMDA used in the present study were determined based on a previous study.^24 The tail-flick apparatus (Model 33B Tail Flick Analgesy Meter, IITC Life Science, Woodland Hills, Calif., USA) generated a beam of radiant heat that was focused on the underside of the tail, 5 cm from the tip. A cut-off time latency of 13.5 s was used to avoid tissue damage to the tail. Nociception was assessed by the time required to induce tail-flick after applying radiant heat to the skin of the tail. The latency of reflexive removal of the tail from the heat was measured automatically to the nearest 0.01 s. Tail-flick latency was measured five times, and the basal latency was defined as the mean. Tail-flick data were expressed as percentage change calculated by the formula: (trial latency−baseline latency)/(baseline latency)×100%. Finally, PE-10 catheter position from each animal was confirmed when lumbar enlargement segments were removed for western blot analysis. PCR analysis of PSD-95/SAP90 in rat spinal cord. The cDNA sequences encoding portions of the PSD-95/SAP90 were amplified using the following synthetic OND primers: PSD1 (5′-[…]-3′; SEQ ID NO: 3) and PSD2 (5′-[…]-3′; SEQ ID NO: 4) for amplification of PSD-95/SAP90 codon positions 789-1525. RNA samples (1 μg) from rat spinal cord, brain and muscle were reverse transcribed to generate first-strand cDNA. The PCR reactions were performed for 25 cycles. Each cycle included 30 s at 94° C., 30 s at 55° C., and 30 s at 71° C. The PCR products were directly cloned into the TA cloning vector (Invitrogen Co., San Diego, Calif., USA) and verified by automatic DNA sequencing. Fusion protein construction and preparation. cDNA sequence encoding portion of PSD-95/SAP90 was amplified by PCR and subcloned in-frame into PGEX-2T (GIBCO, Rockville, Md., USA) via the BamHI and EcoRI restriction digest sites. […]
A general note: Hot-plate and tail-flick tests time the reaction to a heat stimulus.

Data set [3] relates to Male Sprague-Dawley rats. In words: tests of locomotor function (placing, grasping, righting reflex) and general behaviors. The note with it: mean (SD). Here is the method: The effects of ODNs on locomotor function were examined using the following methods.^52 The animals were organized randomly into six groups: control (saline); 12.5 antisense ODN; 25 μg antisense ODN; 50 μg antisense ODN; 50 μg sense ODN; 50 μg missense ODN. The rats were pretreated with ODNs or saline in the manner described above. On the fifth day, 10 μl of saline was injected intrathecally for each rat. In some saline or antisense ODN (50 μg)-treated rats, fresh NMDA solution (1.25 μg/10 μl) was injected intrathecally. The following tests were performed with the experimenter blind to which group was treated with the agents: (1) Placing reflex: The rat was held with the hind limbs slightly lower than the forelimbs, and the dorsal surfaces of the hind paws were brought into contact with the edge of a table. The experimenter recorded whether the hind paws were placed on the table surface reflexively; (2) Grasping reflex: The rat was placed on a wire grid and the experimenter recorded whether the hind paws grasped the wire on contact; (3) Righting reflex: The rat was placed on its back on a flat surface and the experimenter noted whether it immediately assumed the normal upright position. […] In addition, the rat general behaviors including spontaneous activity were observed.

The mark [4] stands for this setting: 50 μg/10 μl intrathecal every 24 h for 4 days + NMDA.
Where [5] appears, read: 50 μg, count of normal reflexes in five trials.
Where [6] appears, read: 12.5 μg, count of normal reflexes in five trials.
The mark [7] stands for this setting: 25 μg, count of normal reflexes in five trials.
[8] abbreviates: 50 μg AS + 1.25 μg NMDA, five trials.

“5′-AAGCCCTTGTTCCCATTT-3′ (DNA, backbone and methylation of C not given here; listed as Rattus rattus) [MS, missense OND control, reference compound]”: the “difference in the number of flinches and shakes vs saline-treated group” value in data set [1] (50 μg/10 μl, either period) is listed as “did not show any significant difference”. Moreover, in data set [2] (50 μg/10 μl every 24 h for 4 days), the “NMDA-produced facilitation of the tail-flick reflex after pretreatment (attenuated or not)” value was “not”. Besides, in data set [2] (setting [4]), the “ΔTF latency (%)” value was −20.96%. Besides, the “percentage change of TF latency (baseline tail-flick latency)” value in data set [2] is on record as −2.05±1.57%. Further, in data set [3] (setting [5]), the Grasping is 5 (0), the Placing is 5 (0) and the Righting was 5 (0).
Regarding “5′-TGTGATCTCCTCATACTC-3′ (DNA, backbone and methylation of C not given here; listed as Rattus rattus) [antisense oligonucletide corresponding to the PDZ domain nucleotides 241 to 258 of rat PSD-95/SAP90 mRNA]”, the figures for the “reduction of the number of flinches and shakes evoked by formalin” value in data set [1] (phasic period (0-10 min)) and in data set [1] (tonic period (10-60 min)) were “but not in the phasic period” and 59%, respectively. For the same substance, the “changes in the number of flinches and shakes vs saline-treated group” value in data set [1] (12.5 and 25 μg, phasic and tonic periods) is reported as “failed to produce significant changes”. Also, the “prevention of the NMDA-induced decrease of the tail-flick latency” value came to 55% in data set [2] (25 μg intrathecal) and 82% in data set [2] (50 μg intrathecal). For the same substance, the “NMDA-produced facilitation of the tail-flick reflex after pretreatment” value in data set [2] (25 μg/10 μl and 50 μg/10 μl every 24 h for 4 days) is “attenuated”. The figures for the “ΔTF latency (%)” value in data set [2] (25 μg/10 μl intrathecal every 24 h for 4 days + NMDA) and in data set [2] (setting [4]) were −11.65% and −4.72%, respectively. In addition, in data set [2], the “percentage change of TF latency (baseline tail-flick latency)” value stood at 0.44±1.95%. For the same substance, in data set [2] (recovery for an additional four days after treatment), the “tail flick latency in response to NMDA stimulation after recovery” value is “returned to normal”. For the same substance, the Grasping in data set [3] (setting [6]) is recorded as 5 (0); in data set [3] (setting [7]), 5 (0); in data set [3] (setting [8]) it was 4.83 (0.41); in data set [3] (setting [5]), 4.67 (0.52). Also, the Placing is 5 (0) in data set [3] (setting [6]), 5 (0) in data set [3] (setting [7]), 4.83 (0.41) in data set [3] (setting [8]) and 4.83 (0.41) in data set [3] (setting [5]). The Righting in data set [3] (setting [6]) is 5 (0); in data set [3] (setting [7]) it was 5 (0); in data set [3] (setting [8]), 4.83 (0.41); in data set [3] (setting [5]), 4.83 (0.41).

Source of the values: patent US8148347B2, “Inhibition of interaction of PSD93 and PSDS95 with nNOS and NMDA receptors” (The Johns Hopkins University, priority 2000, dated 2012).
